Assay results published in patent publication US12146889B1, “Compounds and combinations thereof for treating neurological and psychiatric conditions” (priority 2022, dated 2024).
Structures can show the parent of a compound that is named as a salt. Where two headings read alike, the source gives them in different places.

Key:
[1] = pharmacokinetics in moderate renal impairment
Text: (§1) Data are GMRs and 90% CIs. References used are the matched healthy subjects for renal and hepatic impairment studies, and extensive or ultra-extensive CYP2D6 metabolizers respectively.

[2] = bupropion and its metabolites; cited from earlier work
[3] = solubility of the powder in water
[4] = pharmacokinetics in moderate hepatic impairment; format: in vivo, human; settings: for AUC0-12 and Cmax in moderate hepatic impairment compared with healthy patients: Group 2; for AUC Change Relative to Reference (90% CI); mean ratio of AUC0-12 / Cmax Change Relative to Reference (90% CI); mean ratio of Cmax: Moderate Hepatic Impairment (Group 2), GMR vs matched healthy subjects, after 8 days of twice daily dosing, hydrobromide monohydrate
[5] = effect of food on pharmacokinetics of the subject combination
[6] = pharmacokinetics in CYP2D6 poor metabolizers
Text: Approximately 7% to 10% of Caucasians and 3% to 8% of African Americans lack the capacity to metabolize CYP2D6 substrates and are classified as poor metabolizers.
as §1

[7] = pharmacokinetics of the subject combination at steady state; settings: co-administered with bupropion
[8] = co-administration with strong CYP2D6 inhibitor (paroxetine)
[9] = tested on: patients with treatment-resistant depression or MDD; settings: cited from earlier work
[10] = tested on: patients with treatment-resistant depression or MDD; settings: cited from earlier work; remark: listed apart in the source
[11] = 7 subjects with moderate (GFR 30-60 mL/min) renal impairment vs 6 matched controls
[12] = patients having moderate renal impairment, tablets of Example 4
[13] = 3 poor metabolizers, subject combination
[14] = 20 mg of paroxetine, tablet of Example 4 twice daily, vs tablet twice daily without paroxetine
[15] = flexible-dose study, patients ≥65 years with treatment-resistant depression, 28 to 84 mg + oral AD, N = 72

## CC(NC(C)(C)C)C(=O)c1cccc(Cl)c1.Cl (racemic) [bupropion, (±)-1-(3-chlorophenyl)-2-[(1,1-dimethylethyl)amino]-1-propanone hydrochloride]
[1]; human, in vivo
  increase in AUC0-12 in moderate renal impairment: 1.80 fold
  increase in Cmax in moderate renal impairment: 1.87 fold
  increase of exposure in moderate renal impairment vs matched controls with normal renal function: approximately 2 fold
  reduction of clearance in moderate renal impairment vs matched controls: 50%
[2]
  presence in human milk: presence of bupropion and its metabolites in human milk
[3]
  solubility in water: highly soluble in water
[4]
  AUC0-12 and Cmax in moderate hepatic impairment compared with healthy patients: not significantly different

## COc1ccc2c(c1)[C@]13CCCC[C@@H]1[C@H](C2)N(C)CC3 [dextromethorphan, morphinan, 3-methoxy-17-methyl-, (9α, 13α, 14α), hydrobromide monohydrate]
[1]; [11]
  increase of exposure in moderate renal impairment vs matched controls with normal renal function: approximately 2 fold
  reduction of clearance in moderate renal impairment vs matched controls: 50%
[1]; [12]
  increase in AUC0-12 in moderate renal impairment: 2.21 fold
  increase in Cmax in moderate renal impairment: 2.10 fold
[5]
  decrease of AUC0-12 when administered with food: 14%
[6]; [13]
  increase in AUC0-12 in poor metabolizers compared to extensive metabolizers: ~3.4 fold
  increase in Cmax in poor metabolizers compared to extensive metabolizers: ~3 fold
[6]; 12 poor metabolizers treated with the subject combination in efficacy trials
  steady state plasma concentrations in poor metabolizers vs non-poor metabolizers: generally higher than exposures for non-poor metabolizers
[6]; subject composition
  plasma concentrations in CYP2D6 poor metabolizers compared to patients who are not CYP2D6 poor metabolizers: increases plasma concentrations of dextromethorphan
[7]; varying doses of bupropion (75 to 150 mg)
  dose proportionality of changes in AUC and Cmax at steady state: less than dose-proportional changes
[7]; varying doses of dextromethorphan (30 to 60 mg)
  dose proportionality of changes in AUC and Cmax at steady state: greater than dose-proportional changes
[3]
  solubility in water: sparingly soluble in water
[4]
  AUC0-12 and Cmax in moderate hepatic impairment compared with healthy patients: not significantly different
  AUC Change Relative to Reference (90% CI); mean ratio of AUC0-12: 1.17
  Cmax Change Relative to Reference (90% CI); mean ratio of Cmax: 1.21
[4]; listed as DM
  AUC Change Relative to Reference (90% CI); mean ratio of AUC0-12: 1.17 (0.85, 1.61)
  Cmax Change Relative to Reference (90% CI); mean ratio of Cmax: 1.21 (0.90, 1.62)
[8]; [14]
  increase of AUC0-12 with concomitant paroxetine: 2.69 fold
  increase of Cmax with concomitant paroxetine: 2.38 fold
[8]; co-administration of paroxetine and the subject combination, 29 healthy volunteers
  increase of overall exposure by paroxetine: 2.5 fold
[8]; in vivo
  plasma concentrations on concomitant use of the subject combination with strong CYP2D6 inhibitor: increases plasma concentrations of dextromethorphan

## CN[C@]1(c2ccccc2Cl)CCCCC1=O [esketamine, Esketamine]
[9]; fixed-dose study, patients <65 years with treatment-resistant depression, 56 mg + oral AD, N = 113
  Incidence of Dissociation (CADSS total score >4 and change >0): 61%
[9]; fixed-dose study, patients <65 years with treatment-resistant depression, 84 mg + oral AD, N = 116
  Incidence of Dissociation (CADSS total score >4 and change >0): 69%
[9]; [15]
  Incidence of Dissociation (CADSS total score >4 and change >0): 75%
[10]; fixed-dose study, patients <65 years with treatment-resistant depression, 56 mg + oral AD, N = 114
  Incidence of Sedation (MOAA/S score <5): 50%
[10]; fixed-dose study, patients <65 years with treatment-resistant depression, 84 mg + oral AD, N = 114
  Incidence of Sedation (MOAA/S score <5): 61%
[10]; [15]
  Incidence of Sedation (MOAA/S score <5): 49%
